Measurements from PMC11530130, “Peripherally restricted PICK1 inhibitor mPD5 ameliorates pain behaviors in murine inflammatory and neuropathic pain models” (JCI Insight, 2024).
Several values for one entry are separate records, joined by “and”; a condition that tells them apart may be missing. Equal values may be shown once.

System: naive mice
Assay: Single exposure place preference (sePP), naive mice
Assay type: in vivo, mouse
Procedure: On days 6-8, the escape hole was moved
90 degrees, and all mice went through the second bout of training. On day nine, a second probe trial was performed testing the reversal learning of the mice.
Cancer induced bone pain was induced as described in the “Induction of cancer induced bone pain (CIBP model)"-section. For the assessment of limb use, all mice from one cage were placed in an empty transparent plastic box and left for ten min to habituate. One mouse at a time was moved by tunnel handling or scooping to an identical plastic box for the limb use test. […]
gait, 3 Insignificant limping, 2 Significant limping and shift in bodyweight towards the healthy limb 1 Significant limping and partial lack of use of ipsilateral leg 0 Total lack of use of ipsilateral leg. A score of 0 was used as a humane endpoint. Urine and faeces were cleaned from the plastic box with a dry paper towel between mice from the same cage, and a new plastic box was used for mice from different cages. The limb use test was video filmed for later […]
Assessment of static weight bearing. […]
Initial perception of the drugs was measured by single exposure place preference experiments performed in an elongated three compartment apparatus (67.5 cm x 24 cm) with a biased design of different floor textures and wall patterns and a neutral zone in the middle. […]

What does the source list for `CCCCCCCCCCCCCC(=O)N(CCOCCOCCC(=O)N[C@@H](Cc1c[nH]cn1)C(=O)N[C@@H](Cc1c[nH]c2ccccc12)C(=O)N[C@@H](CC(C)C)C(=O)N[C@@H](CCCCN)C(=O)N[C@H](C(=O)O)C(C)C)CCOCCOCCC(=O)N[C@@H](Cc1c[nH]cn1)C(=O)N[C@@H](Cc1c[nH]c2ccccc12)C(=O)N[C@@H](CC(C)C)C(=O)N[C@@H](CCCCN)C(=O)N[C@H](C(=O)O)C(C)C` [mPD5, myristoyl-NPEG4-(HWLKV)2]?
time spent in the paired compartment, individual mice (naive mice conditioned with 30 μmol/kg): 310.53 and 374.063 and 737.926 and 573.794 and 360.996 and 424.662 and 697.46; preference compared to PBS (intrinsic rewarding properties, sePP) (naive mice, 30 μmol/kg): did not show any preference
